Experimental data from PMC6016998 (2018).

Tested on: ochratoxin A aptamer, 0 complementary bp (no tail) (DNA, aptamer) GATCGGGTGTGGGTGGCGTAAAGGGAGCATCGGACA
Assay: electrochemical aptamer-based sensor, square wave voltammetry (KDM)
Conditions: 1X PBS pH 7.4, room temperature

Row | Compound | KD (1X PBS (Na+, K+; concentrations not given), undiluted iced coffee rows (ions not given), flowing, KDM of 240 Hz and 20 Hz) | binding (tested at 10 µM only, no KDM signal)
1 | C[C@@H]1Cc2c(Cl)cc(C(=O)N[C@@H](Cc3ccccc3)C(=O)O)c(O)c2C(=O)O1 | 6.5 ± 0.6 µM | –
2 | CCCC[C@@H](C)[C@@H](OC(=O)C[C@@H](CC(=O)O)C(=O)O)[C@H](C[C@@H](C)C[C@H](O)CCCC[C@@H](O)C[C@H](O)[C@H](C)N)OC(=O)C[C@@H](CC(=O)O)C(=O)O | – | no
